Reference: patent US11154057B2, “Use of nootkatone to treat mosquito infestations” (EVOLVA SA, priority 2016, dated 2021)

How the values were obtained:
Assay type in all cases: in vivo
Aedes aegypti eggs = experiment: Prevention of mosquito egg hatching (Example No. 5); settings: 0.03% nootkatone/1% ethanol, 24 hours
Experimental: Mosquito eggs from Aedes aegypti and Anopheles quadrimaculatus mosquitoes were obtained from a commercial source.
In a second experiment, Aedes aegypti eggs were divided into cohorts of ˜100 eggs. Each cohort was placed inside a clean 9 cm Petri dish after receiving mock treatment or a true treatment with nootkatone (see “Treatments”), after which the Petri dish was covered with its lid and held at 30-35° C. to allow hatching. Hatching was scored as the number of live larvae after 24 hours. Four cohorts were tested per treatment.
An aliquot of 0.2 mL of a 3% solution (w/v) of nootkatone in 100% ethanol was added to 20 mL of sterile MilliQ water in treatment Petri dishes to obtain a final concentration of 0.03% nootkatone/1% ethanol. Control beakers received 0.2 mL of 100% ethanol, to obtain a final concentration of 1% ethanol.
The rate of egg hatching was calculated for each treatment and control egg cohort, and the results of at least 4 cohorts were averaged, and used to calculate the relative hatch rate for treatments versus controls (see FIG. 11). […] Therefore, nootkatone treatment of mosquito breeding sites will effectively reduce mosquito populations by preventing hatching and killing hatched larvae.

Aedes aegypti pupae = experiment: Prevention of adult emergence (eclosion) from pupae (Example No. 7); settings: for Dead adults, total number / Dead pupae, total number / live adults, total number / live pupae, total number: 0.015% NK/0.5% EtOH in water
Experimental: Eggs of Aedes aegypti were purchased from a commercial supplier. They were hatched in sterile MilliQ water and fed with finely ground Tetramin® fish food until they developed into pupae.
Clean, glass 600 mL beakers were washed and thoroughly rinsed prior to use as test containers. On each of four testing days, pupae were removed from dishes used to grow larvae. Replicates of 10 pupae each were randomly assigned to glass beakers in a volume of 100 mL of sterile MilliQ water, and a treatment of nootkatone (see “Treatments” below), or a control treatment of ethanol alone, was added. The beakers were then covered lightly with Kimwipes, secured by rubber bands to prevent escape of adults. […]
An aliquot of 0.5 mL of a 3% solution (w/v) of nootkatone in 100% ethanol was added to treatment beakers to obtain a final concentration of 0.015% nootkatone/0.5% ethanol. Control beakers received 0.5 mL of 100% ethanol, to obtain a final concentration of 0.5% ethanol.

Aedes aegypti larvae [1] = experiment: Liquefied nootkatone dripped onto the water surface as larvicide (Example No. 9, Treatment 1); settings: thirty one microliters liquefied nootkatone on 100 mL water; 25 larvae; 24 hours
Experimental: (§1) In this example, nootkatone-containing compositions were evaluated for their ability to act as a larvicide by coating a water surface. Mixed sex 3rd and 4th instar Aedes aegypti larvae (Yellow fever mosquito) were tested.
98% pure nootkatone crystals were held at 38° C. until they liquefied. Previous testing has shown that 1 mL of a 3% solution of nootkatone dissolved in ethanol, when added to 100 mL of water containing mosquito larvae, kills 100% of larvae in less than 24 hours. This experiment tested whether an equivalent amount of liquefied nootkatone alone is able to kill larvae. Thirty one microliters of liquified nootkatone crystals were dripped onto the surface of 100 mL of water in a 600 mL clean, glass beaker containing 25 mixed sex 3rd and 4th instar Aedes aegypti larvae.

Aedes aegypti larvae [2] = experiment: Nootkatone crystals dropped onto the water surface as larvicide (Example No. 9, Treatment 3); settings: for Alive / Dead / KD: 30 mg NK crystals in 100 mL water
Experimental: as §1
Standard storage conditions for nootkatone crystals is 4° C., therefore, the ability of crystals to coat a water surface without first liquifying them was tested. 30 mg of 98% pure nootkatone crystals was weighed and gently dropped onto the surface of 100 mL of water in a 600 mL clean, glass beaker containing 10 mixed sex 3rd and 4th instar Aedes aegypti larvae (3 replicates). Three control replicates of 10 larvae each were placed in identical beakers of 100 mL of water, but without nootkatone. All beakers were provided with finely ground fish food, and they were maintained at room temperature (˜72° F.).

[3] = test system: Adult Aedes aegypti mosquitoes; experiment: Prevention of adult mosquito egg laying on treated filter papers; fecundity and adult mortality (Example No. 8); settings: for Adult mosquito mortality: Affected, mean / Adult mosquito mortality: Dead, mean / Adult mosquito mortality: Knockdown, mean: 1% NK treated filter paper, cage of 100 mosquitoes; for Percent fecundity reduction, average: filter paper treated with 1 mL, dried, versus untreated paper in the same cage of 100 blood fed mosquitoes, triplicate
Experimental: Adult Aedes aegypti mosquitoes from a laboratory were blood fed and mated. Testing was conducted 2 days after administration of the blood meal to ensure that females were ready to oviposit.
White filter paper was cut to fit Petri dishes 9 cm in diameter, and each paper was treated with 1 mL of ethanol, 1% nootkatone, Formulation ECS-F-#605, or Formulation ECS-F_#607 (see Table No. 5). The filter papers were allowed to dry completely, and two Petri dishes were added to each cage of 100 blood fed mosquitoes, one treated, and one untreated control. A few milliliters of water was added to each Petri dish to provide a suitable egg laying site. […] Each treatment was tested in triplicate.
Female mosquitoes lay a high density of eggs (black spots) on suitable egg laying substrates, such as white filter paper. It was anticipated that either adult females would be repelled from egg laying sites that were treated with nootkatone, or that they would attempt to land and be poisoned by contacting nootkatone on the water surface. The rate of egg laying on the treated surface and the control surface, the presence of any adults found dead on the surface, and the overall mortality rate on a daily basis were recorded, and the average and standard error were calculated versus the untreated controls. […] An unexpected result was that filter papers treated with ethanol alone had 24% more eggs laid than the average of the untreated filter papers in the same cages. […] Photographs of representative filter papers are shown in FIG. 15, 1% nootkatone treatment (left), ethanol-only control (right).

[4] = 0.015% nootkatone/0.5% ethanol, after 48 hours, of 150 pupae
[5] = 30 mg nootkatone crystals, at 27 hours

Compound: C=C(C)[C@@H]1CCC2=CC(=O)C[C@@H](C)[C@]2(C)C1 [Nootkatone, nootkatone]
- reduction in egg hatching versus the controls (Aedes aegypti eggs): 37%
- state of hatched larvae in treated dishes (Aedes aegypti eggs): all larvae in the treated dishes were dead
- average number of hatched larvae per Petri dish (Aedes aegypti eggs; cohorts of ~100 eggs, four dishes, controls 13.5, FIG. 11): 8.5 larvae
- Dead adults, total number (Aedes aegypti pupae; 2 DAT (48 hours), of 150 pupae): 47
- Dead pupae, total number (Aedes aegypti pupae; 2 DAT (48 hours), of 150 pupae): 103
- live adults, total number (Aedes aegypti pupae; 2 DAT (48 hours), of 150 pupae): 0
- live pupae, total number (Aedes aegypti pupae; 2 DAT (48 hours), of 150 pupae): 0
- Dead adults, total number (Aedes aegypti pupae; 24 hr, of 150 pupae): 31
- Dead pupae, total number (Aedes aegypti pupae; 24 hr, of 150 pupae): 31
- live adults, total number (Aedes aegypti pupae; 24 hr, of 150 pupae): 0
- live pupae, total number (Aedes aegypti pupae; 24 hr, of 150 pupae): 88
- survivors (Aedes aegypti pupae; 0.015% nootkatone/0.5% ethanol (v/v) in water, after 48 hours): no survivors
- share of pupae that died as pupae (Aedes aegypti pupae; [4]): 68.7%
- share of pupae that metamorphosed but died during eclosing (Aedes aegypti pupae; [4]): 31.3%
- kill rates for mosquito larvae compared with nootkatone dissolved in ethanol (Aedes aegypti larvae [1]): not as high as previous testing
- Alive (Aedes aegypti larvae [2]; 1 hr): 100%
- Dead (Aedes aegypti larvae [2]; 1 hr): 0%
- KD (Aedes aegypti larvae [2]; 1 hr): 0%
- Alive (Aedes aegypti larvae [2]; 27 hr): 53%
- Dead (Aedes aegypti larvae [2]; 27 hr): 7%
- KD (Aedes aegypti larvae [2]; 27 hr): 40%
- Alive (Aedes aegypti larvae [2]; 54 hr): 3%
- Dead (Aedes aegypti larvae [2]; 54 hr): 70%
- KD (Aedes aegypti larvae [2]; 54 hr): 27%
- Alive (Aedes aegypti larvae [2]; 77.5 hr): 0%
- Dead (Aedes aegypti larvae [2]; 77.5 hr): 97%
- KD (Aedes aegypti larvae [2]; 77.5 hr): 3%
- killing (Aedes aegypti larvae [2]; 30 mg nootkatone crystals, after more than 3 days): below 100%
- larvae alive (unaffected plus affected) (Aedes aegypti larvae [2]; [5]): 93%
- larvae that appeared to be unaffected (Aedes aegypti larvae [2]; [5]): ~50%
- Adult mosquito mortality: Affected, mean ([3]; 1 day post-exposure): 6.7 per cage
- Adult mosquito mortality: Dead, mean ([3]; 1 day post-exposure): 6.7 per cage
- Adult mosquito mortality: Knockdown, mean ([3]; 1 day post-exposure): 0.0 per cage
- Adult mosquito mortality: Affected, mean ([3]; 2 days post-exposure): 10.7 per cage
- Adult mosquito mortality: Dead, mean ([3]; 2 days post-exposure): 10.7 per cage
- Adult mosquito mortality: Knockdown, mean ([3]; 2 days post-exposure): 0.0 per cage
- total eggs laid on treated papers in 3 cages ([3]; 1% nootkatone in ethanol, versus 700-1100 eggs per cage on untreated papers): 2 eggs
- Percent fecundity reduction, average [3]: 99%
- Percent fecundity reduction, average ([3]; listed as NK): 99.9%
